Data on three compounds can be found in patent US20240238304A1, “Small Molecule Degraders of DOT1L and Uses Thereof” (Northwestern University, priority 2022, published 2024).

Assay [1] has as its target T1, DOT1L (Homo sapiens, UniProt Q8TEK3).
T1 construct: nuclear protein was extracted using NE-PER Nuclear and Cytoplasmic Extraction Reagents; endogenous in cells; host or cells: LNCaP
Briefly: Screening of PROTAC degraders of DOT1L: western blotting of nuclear extract. In kind it is cell-based. As to conditions: 1 μM, 48 h (2 days) treatment, LNCaP cell line, Lamin B loading control. As for the experimental part:
LNCaP cells were cultured in complete RPMI1640 media. 70-80% confluent of cells were treated with 1 μM PROTAC degraders of DOT1L (Group A-D), 1 μM parent compound 534, 1 μM EPZ5676, and DMSO (Vehicle) for 48 h. Then, nuclear protein was extracted using NE-PER Nuclear and Cytoplasmic Extraction Reagents (Thermo Scientific 78833) followed by western blotting. Protein band intensity was measured by Image J.
(§1) Nuclear protein extracts were separated by Bolt™ 4-12% Bis-Tris Plus Gels (Invitrogen) and transferred to PVDF membranes by wet transfer. The membranes were blocked with 5% Blotting-Grade Blocker (Bio-Rad) in Tris-buffered saline with 0.5% Tween 20 (TBST) for 1 h at room temperature, and then incubated overnight at 4° C. in blocking buffer with primary antibody including rabbit DOT1L (D1W4Z) mAb1:3000 (CellSignalingTechnology, Cat #77087) and goat lamin B(C-20) pAb 1:1000 (Santa Cruz Biotechnology, Cat #sc-6216). After incubation with HRP-conjugated goat anti-rabbit secondary antibody 1:10,000 (Bio-Rad, Cat #170-6515) or HRP-conjugated donkey anti-goat secondary antibody 1:3000 (Santa Cruz Biotechnology, Cat #sc-2020) for 1 h, the membranes were detected using Super Signal West Femto (Thermo Fisher Scientific, Cat #34096).
(A western blot detects proteins with antibodies after separation by electrophoresis.)

Assay [2] deals with T1, DOT1L. Briefly: Time-course analysis of DOT1L degradation: western blotting of nuclear extract. The conditions noted are these: 1 μM, multiple time points 1 h to 72 h, LNCaP cell line, nuclear extraction. In kind it is cell-based. On the procedure: LNCaP cells were culturedincompleteRPMIl640 media. 70-80% confluent of cells were treated with 1 μM 705 (Group D), 1 μM 588 (Group A), 1 μM 593 (Group C), 1uM 534 (parent), 1 μM EPZ5676, and DMSO for 1 h, 2 h, 6 h, 24 h, 48 h, and 72 h. Then, nuclear protein was extracted using NE-PER Nuclear and Cytoplasmic Extraction Reagents (Thermo Scientific 78833) followed by western blotting. Protein band intensity was measured by Image J.
as §1

T1 sequence (Q8TEK3 whole entry): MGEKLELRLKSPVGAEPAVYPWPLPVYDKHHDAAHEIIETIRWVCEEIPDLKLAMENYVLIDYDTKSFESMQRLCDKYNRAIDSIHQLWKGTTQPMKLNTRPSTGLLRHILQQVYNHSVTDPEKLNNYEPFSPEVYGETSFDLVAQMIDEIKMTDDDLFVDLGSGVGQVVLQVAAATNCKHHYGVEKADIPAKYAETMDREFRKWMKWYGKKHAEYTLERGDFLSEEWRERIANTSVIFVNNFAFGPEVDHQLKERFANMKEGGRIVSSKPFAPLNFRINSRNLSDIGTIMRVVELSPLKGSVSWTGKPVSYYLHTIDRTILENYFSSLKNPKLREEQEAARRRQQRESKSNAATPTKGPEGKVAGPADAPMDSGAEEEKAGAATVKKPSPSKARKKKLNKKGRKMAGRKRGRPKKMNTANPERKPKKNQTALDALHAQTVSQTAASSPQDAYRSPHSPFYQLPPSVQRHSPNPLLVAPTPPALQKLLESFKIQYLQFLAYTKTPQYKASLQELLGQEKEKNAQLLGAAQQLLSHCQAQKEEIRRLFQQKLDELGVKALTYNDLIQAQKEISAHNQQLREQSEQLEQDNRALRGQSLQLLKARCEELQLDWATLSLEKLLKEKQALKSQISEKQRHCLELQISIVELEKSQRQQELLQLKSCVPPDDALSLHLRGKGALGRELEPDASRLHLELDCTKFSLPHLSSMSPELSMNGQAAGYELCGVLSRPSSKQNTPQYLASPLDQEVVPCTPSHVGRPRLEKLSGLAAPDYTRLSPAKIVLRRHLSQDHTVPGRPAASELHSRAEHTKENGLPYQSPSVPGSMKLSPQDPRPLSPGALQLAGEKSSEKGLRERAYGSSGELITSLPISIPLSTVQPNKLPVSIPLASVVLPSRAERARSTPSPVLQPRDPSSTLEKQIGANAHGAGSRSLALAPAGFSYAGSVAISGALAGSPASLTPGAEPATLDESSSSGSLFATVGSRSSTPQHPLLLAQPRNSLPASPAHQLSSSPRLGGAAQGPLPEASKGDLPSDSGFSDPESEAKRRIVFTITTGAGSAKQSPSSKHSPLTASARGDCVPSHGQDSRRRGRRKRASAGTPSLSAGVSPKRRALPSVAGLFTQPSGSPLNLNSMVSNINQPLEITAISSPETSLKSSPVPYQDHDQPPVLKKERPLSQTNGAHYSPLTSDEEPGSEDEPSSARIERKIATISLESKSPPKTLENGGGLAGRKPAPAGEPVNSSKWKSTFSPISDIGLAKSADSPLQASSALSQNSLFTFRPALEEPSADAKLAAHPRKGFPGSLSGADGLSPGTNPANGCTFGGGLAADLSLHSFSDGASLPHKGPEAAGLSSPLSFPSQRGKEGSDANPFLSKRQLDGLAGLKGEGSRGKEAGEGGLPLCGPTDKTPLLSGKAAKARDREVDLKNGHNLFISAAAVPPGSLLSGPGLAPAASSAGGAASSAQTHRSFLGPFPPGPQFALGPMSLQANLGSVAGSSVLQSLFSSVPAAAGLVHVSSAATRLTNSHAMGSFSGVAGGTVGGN

For the compound `COc1nc(Nc2cc(S(C)(=O)=O)ccc2N[C@@H](c2cccc3c2OC(F)(F)O3)c2ncccc2Cl)nc(N2CCNCC2)n1` [Compound 534], the “DOT1L degradation (western blot, nuclear extraction)” value on DOT1L [1] is on record as “didn't degrade DOT1L protein”. Also, the “DOT1L degradation over time (order of degradation)” value (“DOT1L degradation over time” below) on DOT1L [2] was “didn't degrade DOT1L until 72 h”.

Regarding `COc1nc(Nc2cc(S(C)(=O)=O)ccc2N[C@@H](c2cccc3c2OC(F)(F)O3)c2ncccc2Cl)nc(N2CCN(CCOCCNC(=O)COc3cccc4c3C(=O)N(C3CCC(=O)NC3=O)C4=O)CC2)n1` (stereo partly drawn) [Compound 588], the “DOT1L degradation (western blot, nuclear extraction)” value on DOT1L [1] is “accelerated the most DOT1L degradation”. For the same compound, the “DOT1L degradation over time” value at DOT1L [2] is “degraded DOT1L protein in this order”.

Consider `CC(C)N(C[C@H]1O[C@@H](n2cnc3c(N)ncnc32)[C@H](O)[C@@H]1O)[C@H]1C[C@@H](CCc2nc3cc(C(C)(C)C)ccc3[nH]2)C1` [EPZ5676, reference compound], for which the “DOT1L degradation (western blot, nuclear extraction)” value at DOT1L [1] is “didn't degrade DOT1L protein”. Further, the “DOT1L degradation over time” value at DOT1L [2] is listed as “didn't degrade DOT1L until 72 h”.
